The values below come from article PMC9945865, “Anticancer evaluation of new organometallic ruthenium(II) flavone complexes” (RSC Medicinal Chemistry, 2022).

In series [1] the test system is ovarian cancer cell lines. Set-up: method as in doi:10.1021/OM500317B. The conditions noted are these: ovarian cancer cell lines ref 20; cited from earlier work.
Series [2] has as its system cervical, breast, hepatocellular and colorectal cancer cell lines. Also noted: method as in PMID 24793593. The conditions noted are these: hepatocellular and colorectal cancer cell lines ref 19; cited from earlier work.
Series [3] has as its system VEGF i-motif DNA. The experiment in a line: I-motif DNA UV melting (thermal stability). In kind it is binding, human. The following applies: for Tm: VEGF i-motif with flavone at 1 : 1 ratio, 295 nm, free DNA 46 °C; for ΔTm: VEGF i-motif, 1 : 1 ratio, ΔTm = Tm (DNA-flavone) − Tm (DNA). An excerpt:
(§1) The effect of this set of flavones on VEGF and c-myc was further evaluated via thermal stability measurements. Stabilizing/destabilizing the promotor i-motif structures is often reported to regulate expression of the corresponding genes, which for VEGF and c-myc could have detrimental effects on cancer growth and propagation.[48] As observed in Fig. 9, effects of the test flavones on the thermal stability of the VEGF and c-myc i-motif sequences were generally marginal and in agreement with λmax chromophoric shifts. […] Compound 1 destabilized VEGF i-motif in contrast to stabilizing the c-myc one. This mirrored the trend of a higher chromophoric shift observed for flavone 1 with VEGF i-motif sequence that also differed in pattern (hypochromic) from the shift witnessed with the c-myc sequence (hyperchromic). These findings could indicate higher selectivity of the 4-oxo derivative (1) towards VEGF i-motif based on an intercalative binding mode especially that hypochromic shifts are reported with DNA intercalation.[49,50] […] In this regard, the highest i-motif activity seen for the parent flavonoids was switched from VEGF to c-myc with compound 1 and vice versa with compound 2 upon Ru chelation. This emphasizes the key role of the interplay between the substitution at position 4 and metal complexation on the interaction with biological targets.
(§2) UV-visible absorbance measurements and DNA UV melting studies were performed on a Cary 300 C (Varian USA) UV-visible spectrophotometer. VEGF and c-myc i-motif DNA (5′-3′ sequences ([…]) and ([…]), respectively) were purchased from Sigma-Aldrich (Gillingham, UK) and used without further purification. Na cacodylate buffer (20 mM, pH 5.5) was used for both i-motifs. DNA concentrations were determined by measuring the absorbance at 260 nm after melting using the molar extinction coefficient supplied by the manufacturer. VEGF and c-myc i-motifs were prepared for experiments by diluting with buffer solution, annealed with or without the flavonoid at 95 °C for 5 min then gently cooled to room temperature. The stock solutions of the test compounds (20 mM) were prepared in 100% sterile DMSO. These stocks were then appropriately diluted with HPLC grade water and DMSO levels were maintained below 0.1% in the test concentrations.
(§3) UV-visible absorbance measurements and UV melting studies of either free i-motifs (VEGF or c-myc), free flavone (1, 1Ru, 2 or 2Ru) or both i-motif DNA and flavone (2 μM: 2 μM) were recorded using 1.0 cm matched quartz cuvettes. First spectra were recorded in the range of 200–500 nm to determine the relevant wavelength range were no peaks were observed above 320 nm. […] UV-visible absorbance was measured at 25 °C while melting curves were collected at a heating rate of 1 °C min^−1 from 20 to 90 °C. Tm was calculated by non-linear fitting of the sigmoidal curve obtained at 295 nm.

In series [4] the test system is c-myc i-motif DNA. Kind of series: I-motif DNA UV melting (thermal stability). In kind it is binding, human. The following applies: for Tm: c-myc i-motif with flavone at 1 : 1 ratio, 295 nm, free DNA 45 °C; for ΔTm: c-myc i-motif, 1 : 1 ratio, ΔTm = Tm (DNA-flavone) − Tm (DNA).
Text: as §1, §2, §3

Series [5] deals with MDA-MB-231. The experiment in a line: Wound healing (migration) 24 h scratch assay. In kind it is cell-based, human. The conditions noted are these: MDA-MB-231, 1, 10, 20 μM, 24 h. On the procedure:
(§4) Malignant cell migration is essential for tumour invasion and metastasis.[1] Thus, the ability of the synthetic flavones (1 and 2) and their Ru(II) metal complexes (1Ru and 2Ru) to inhibit the migration of breast cancer cells (MCF-7 and MDA-MB-231) was assessed by an in vitro 24 h scratch assay. Low, sub-cytotoxic concentrations of 1, 10 and 20 μM were used in this evaluation.
(§5) MCF-7 or MDA-MB-231 cells were seeded in 12-well plates at 2 × 10^5 or 1 × 10^5 cells per mL, respectively, and cultured until 70–80% confluency. Afterwards, they were serum-starved (0% serum) for 24 h to inactivate the cell proliferation. A scratch was performed on the cell monolayers using a 200 μL pipette tip. Cells were then washed twice with PBS and treated with complete medium and one of the synthesized derivatives at 1, 10 or 20 μM. […] Images of the scratches were taken immediately after performing the scratch (t = 0 h) and at 24 h (t = 24 h). The area not covered by the cells was quantified using ImageJ software. % of wound closure was calculated using the following equation:100 × ((Area of scratch at t0 − Area of scratch at t24)/Area of scratch at t0)

The subject of series [6] is MCF-7. The experiment in a line: Wound healing (migration) 24 h scratch assay. In kind it is cell-based, human. The conditions noted are these: MCF-7, any of the tested doses (1, 10, 20 μM). The procedure: as §4, §5
Series [7] has as its system MDA-MB-231. Kind of series: Cell viability, 72 h MTT assay. In kind it is cell-based, human. The following applies: Homo sapiens; MDA-MB-231, 72 h MTT, mean ± SEM, n = 3. The procedure: (§6) The unique chemical features and coordination geometries of metal ions can add several additional binding interactions that can potentially enhance their anticancer properties for example by allowing intercalation and exploitation of their redox potential.[24] […] In that context, coordination of derivative (2) with a Ru(II) metal ligand is a promising approach to further improve its antiproliferative activity.
(§7) MCF-7 and MDA-MB-231 cells were seeded at a density of 4 × 10^4 and 2 × 10^4 cells per mL, respectively, into 96 well plates and incubated to allow the attachment for 24 h. After 24 h, the cells were treated with one of the synthesised derivatives at range of concentrations (0–100 μM) for 67 h. After 67 h, 20 μL of MTT (5 mg mL^−1) solution in PBS was added to each well and the cells were incubated for 5 h. The purple crystals formed were dissolved in 100 μL of DMSO and the plates were read at 560 nm using a SPECTRA max UV spectrometer (Bio-Rad). The data represented are the mean of the three individual experiments.

Series [8] concerns MCF-7. The experiment in a line: Cell viability, 72 h MTT assay. In kind it is cell-based, human. The conditions noted are these: Homo sapiens, MCF7; MCF-7, 72 h MTT, mean ± SEM, n = 3. The procedure:
as §6, §7
A general note: Tetrazolium assays rely on reduction of a dye to a coloured formazan, in cell work by metabolically active cells.

The test system of series [9] is VEGF i-motif DNA. Kind of series: I-motif DNA binding, UV-visible absorbance. The following applies: DNA : flavonoid 2 μM : 2 μM, pH 5.5, 25 °C. Set-up: species or system human.
Text: (§8) I-motifs are four stranded antiparallel cytosine rich DNA sequences capable of forming at telomere and promotor regions of genomic DNA.[41,42] […] Due to the presence of potential i-motif forming sequences in 69% of promoter regions in human oncogenes, they are postulated to play a key role in oncogene expression regulation.[44] VEGF and c-myc i-motif sequences are prevalent in oncogene promotor regions in many cancers including breast cancer and as such their ligands have potential anticancer roles.[45] The natural flavonol, fisetin, is reported to specifically bind to VEGF i-motif DNA and regulate its function by stabilizing its hairpin structure.[31] […] In continuation of our investigation of the effects of Ru metal complexation on the different biological activities of flavonoids, interactions with VEGF and c-myc i-motif DNA were studied using UV-vis spectroscopic techniques. […] However, 2Ru's addition led to a 1 nm hypsochromic shift of VEGF i-motif absorbance maximum from 272 to 271 nm. On the other hand, addition of the 4-oxo flavone (1) and its Ru complex (1Ru) led to minor changes in λmax of both sequences that was hypochromic (5% and 3%) with VEGF and hyperchromic (2% and 5%) in case of c-myc (Fig. 8).
as §2, §3

For series [10], the system named is c-myc i-motif DNA. Kind of series: I-motif DNA binding, UV-visible absorbance. The following applies: DNA : flavonoid 2 μM : 2 μM, pH 5.5, 25 °C. Set-up: species or system human.
Text: as §8, §2, §3

The nature of series [11]: Cytotoxicity on HUVECs, trypan blue exclusion assay. In kind it is cell-based, human. The following applies: human, HUVEC cells, % of control, p > 0.05 vs control, read-out: Cell viability of HUVECs. On the procedure: The biocompatibility of flavones (1 and 2)[30] alongside their ruthenium(II) metal complexes (1Ru and 2Ru) with HUVEC cells was established using the trypan blue exclusion assay. A concentration four times higher (i.e. 40 μM) than the highest concentration used for the tube formation antiangiogenic evaluation study (i.e. 10 μM) was selected for this cytotoxic assay.
Cytotoxic activity of treatments on HUVECs using trypan blue exclusion assay.[55] HUVECs were seeded in 96 well plates at 1 × 10^5 cells per mL and cultured for 24 h. Cells were then treated with either luteolin, the synthesised derivatives at 40 μM or culture medium (control) for 24 h. After 24 h, solutions were removed and cells washed with 100 μL PBS followed by the addition of 50 μL trypsin–EDTA and incubation for 5 min to detach the cells. 50 μL of EGM-2 media was added to the wells. 50 μL aliquots of the cell suspension were mixed with equal volume of trypan blue (TB) 0.2% v/v (prepared from 0.4% TB diluted with PBS) then the cells were counted using a haemocytometer. Number of viable and dead cells were counted manually and % cell viability of each treatment was expressed as % of control using the equation:% Cell Viability = (Cell viability in treatment/Cell viability in control) × 100where cell viability was calculated as follows:Cell Viability = Number of viable cells/Total number of cells(viable and dead).

The test system of series [12] is HUVECs. Kind of series: Matrigel endothelial cell tube formation assay (VEGF-mediated). In kind it is cell-based, human. The conditions noted are these: compared to the positive control (10 ng mL^−1 VEGF), 12 h. The procedure: In our recent study,[30] the 4′-chlorophenylflavone derivatives 1 and 2 have shown promising antiangiogenic activities in vitro. Herein, the effect of complexation with a ruthenium(II) metal ligand on the antiangiogenic activity of 1 and 2 was evaluated using the Matrigel tube formation assay that assesses many of the main steps involved in the process of angiogenesis. Inhibition of VEGF-mediated tube formation by the tested substrates was observed after 12 h of treatment on HUVECs at 1 μM and 10 μM concentrations. Luteolin is a natural flavone well known for its high antiangiogenic activity both in vitro and in vivo[34] and as such was used in this study as a reference standard. In accordance with reported data, luteolin inhibited the measured elements of tube formation by 30% compared to the positive control.[34,35] […] The ability of Ru(II) organometallic derivatives to target tumour metastasis has been widely reported both in vitro and in vivo.[3,6,9,36] Thus, based on the preliminary antiangiogenic trends observed for our target Ru(II) complexes (1Ru and 2Ru) and their parent flavones (1 and 2), we further investigated their antiproliferative and antimetastatic potential on the estrogen receptor positive breast cancer cell line (MCF-7) and the more aggressive triple negative cell line (MDA-MB-231).
HUVECs were cultured until confluency and then serum starved (0.1% serum) for 24 h. The tube formation assay followed the reported assay.[56] Briefly, 96 well plates were coated with 50 μL of Corning™ Matrigel™ GFR Membrane Matrix at 4 °C and incubated at 37 °C for 1–2 h to solidify. Serum starved HUVECs were seeded on the solidified Matrigel at 3 × 10^5 cells per mL and treated with medium containing VEGF (10 ng mL^−1) and either luteolin or one of the synthesised derivatives (at 1 μM or 10 μM). Plates were incubated for 12 h and photos covering the whole well area were taken using 4× magnification power of an inverted light microscope. Number of junctions, number and length of segments and master segments were quantified from the taken Images via the Angiogenesis Analyzer plugin[57] in ImageJ software.[58] […] Data was represented as a ratio to the positive control (VEGF enriched).

As to `N.N.[Cl][Pt][Cl]` [cisplatin], the IC50 is 1.5 to 25 µM in series [1] and 13 to 52 µM in series [2].
Regarding `O=c1cc(-c2ccc(Cl)cc2)oc2cc(O)cc(O)c12` [compound 1, 2-(4-chlorophenyl)-5,7-dihydroxy-4H-chromen-4-one], the Tm in series [3] came to 44 °C; in series [4] it was 46 °C. The figures for the shift in melting temperature (ΔTm) in series [3] and in series [4] were −2 °C and 1 °C, respectively. The “effect on the migration” value in series [5] is “neither showed any effect”. Further, the antimigratory activity result in [6] is reported as “no observed effects”. The 50% inhibitory concentration (IC50) in series [7] and in series [8] was over 100 µM each time. For the same compound, the “hypochromic change at λmax” value in series [9] is 5%. For the same compound, the “hyperchromic shift (increase) at absorbance maximum λmax” value (from here on “hyperchromic shift (increase)”) in series [10] came out at 2%. Moreover, the viability at 24 h, 40 µM in series [11] was about 100%.
Compound `Oc1cc(O)c2c(=S)cc(-c3ccc(Cl)cc3)oc2c1` [compound 2, 2-(4-chlorophenyl)-5,7-dihydroxy-4H-chromene-4-thione] gave a melting point of 247.7 to 248 °C. In series [3], the Tm was found to be 47 °C and the ΔTm worked out at 1 °C. In [4], the Tm is 47 °C and the ΔTm is 2 °C. In addition, the IC50 in series [7] turned out to be 43.1 ± 1.29 µM. In series [8], the IC50 is 1.2 ± 0.8 µM. Besides, in series [9], the “hyperchromic shift (increase)” value was 16%. In addition, the “hyperchromic shift (increase)” value in series [10] worked out at 18%. Also, the viability at 24 h, 40 µM in [11] was about 100%.
Take `O=c1cc(-c2ccc(O)c(O)c2)oc2cc(O)cc(O)c12` [luteolin, Luteolin, reference compound]: the “inhibition of the measured elements of tube formation” value in series [12] is on record as 30%.

What is called IC50 is the concentration that inhibits the measured activity by half. A word on the ΔTm: it is the change in melting temperature against a reference sample. What is called viability is the share of living cells, or the viability signal relative to a control. Usually melting point stands for the temperature of the solid-liquid transition.
